From patent US20260169002A1, “PROFILING NEWLY-SYNTHESIZED GLYCOPROTEINS AS MOLECULAR SIGNATURES OF INJURY IN DONOR ORGANS” (Carnegie Mellon University, priority 2022, published 2026) come the findings set out here.

One data set has as its system healthy rat lungs. Briefly: Effect of Ac4GalNAz probe on lung graft quality during EVLP (morphology, physiology). As to conditions: 100 μM Ac4GalNAz vs vehicle perfusion, monitored every hour, 4-hour EVLP. As to the method: (§1) Ex vivo lung perfusion (EVLP) in rats: EVLP was performed using a commercially available rodent EVLP system (IL-2 Isolated Perfused Rat or Guinea Pig Lung System; Harvard Apparatus, Holliston, MA) as described elsewhere (Noda et al., 2014, Eur J Cardio-Thorac Surg., 45:e54-60; and (Noda et al., 2021, Sci Rep., 11:12265). Acellular Steen solution (XVIVO Perfusion AB, Denver, CO) was used for perfusate and lungs were medicated with methylprednisolone (SOLU-MEDROL®; Pfizer, Inc., New York, NY) and cephalosporin (Cefazolin; WG Critical Care LLC, Paramus, NJ) equally in all experimental groups using EVLP. […] Pulmonary artery pressure, peak airway pressure, and airway flow were monitored continuously, and dynamic lung compliance and pulmonary vascular resistance were also analyzed. […]
Airspace morphology evaluation: Following EVLP, the lungs receiving Ac4GaIN Az or vehicle control administration were fixed in Formalin, embedded in paraffin, and sectioned to a thickness of 5 μm. […] Horizontal and vertical mean linear intercepts of each image were measured by Fiji software (Schindelin et al., 2012, Exp Rev Resp Med., 11:119-128), following a protocol described elsewhere (Crowley et al., 2019, BMC Pulm Med., 19:206) The mean values of horizontal and vertical mean linear intercepts of the three images were calculated as the estimated airspace size average of each lung section.

In the next data set the test system is rat lungs. The data set is described as follows: Bioorthogonal azide labeling of NewS-glycoproteins during EVLP, histological detection. As to conditions: 100 μM Ac4GalNAz vs 0.1% DMSO in Steen solution, 4-hour EVLP. As to the method:
as §1
Immunostaining: Rehydrated rat or human lung sections were incubated with antigen unmasking solution at 95° C. for 20 minutes. […] For quantification, three random fields were taken in each lung section. Azide >biotin intensities for each field taken were measured by Fiji software (Schindelin et al., supra). Laminin channels were converted to 8-bit and intensities were measured for Laminin coverage areas. […]

For another data set, the system named is human lungs. The data set is described as follows: Bioorthogonal azide labeling during EVLP, histological detection in human lung sections. As to conditions: Ac4GalNAz vs vehicle in perfusate, 6 hour EVLP. As to the method:
Immunostaining: Rehydrated rat or human lung sections were incubated with antigen unmasking solution at 95° C. for 20 minutes. After cooling down, the sections were reacted with Alkyne-PEG4-biotin (Click Chemistry Tools, TA105) under copper-catalyzed cycloaddition (CuAAC) conditions (Rostovtsev et al., 2002, Angewandte Chemie., 114:2708-2711), or reacted without copper catalyst as a control. All samples were blocked with 1% bovine serum albumin (BSA) in PBS for 20 minutes and incubated with a primary antibody against Laminin (Abcam, Cambridge, UK; ab11575) at a dilution of 1:500. The slides were then stained with streptavidin conjugated to ALEXA FLUOR®-647 (Invitrogen, S21374) and Donkey-anti-Rabbit IgG conjugated to ALEXA FLUOR®-488 (Invitrogen, A32790) at a dilution of 1:500. All slides were mounted with DAPI-containing Fluoromount solution (SouthernBiotech, Birmingham, AL; 0100-20). Single-field images were taken using confocal microscopy and stitched images were taken by EVOS FL Auto 2 Imaging System (Thermo Fisher Scientific, Waltham, MA). For quantification, three random fields were taken in each lung section. Azide >biotin intensities for each field taken were measured by Fiji software (Schindelin et al., supra). Laminin channels were converted to 8-bit and intensities were measured for Laminin coverage areas. […]

A further data set concerns post-EVLP lungs. Briefly: LC-MS/MS proteomic analysis of Input and Eluate samples of lungs with or without Ac4GalNAz during EVLP. Further details: species or system rat. As to conditions: before affinity enrichment. As for the experimental part: Chemoselective enrichment of azide-tagged proteins: Cellular protein extracts of the lungs were reacted with Alkyne-PEG4-desthiobiotin (Click Chemistry Tools, 1109) under CuAAC conditions. Proteins were precipitated with four volumes of ice-cold acetone at −20° C. overnight to remove unreacted Alkyne-PEG4-desthiobiotin. The protein pellets were air-dried and re-dissolved in 2% SDS in PBS (pH 7.40), and then saved as Input samples. Following quantification by BCA, an aliquot of each Input sample containing 1.7 mg of protein was introduced to 75 μL streptavidin-conjugated resin (Thermo Fisher Scientific; 53117) for desthiobiotinylated protein pull-down. Following a 3-hour binding period, Supernatants were collected and the resins were washed 7 times for 15 minutes each with 2% SDS, 40 mM additional NaCl in PBS (pH 7.40). The pulled-down proteins were eluted with 30 mM biotin in 2% SDS, 40 mM additional NaCl in PBS (pH 7.40) (Eluting buffer) at room temperature for 1 hour. […] Protein concentrations of the Eluate samples were determined by BCA assay, and the eluates were then stored at −80° C. for SDS-PAGE and proteomic analysis. […]
Samples were analyzed using a UPLC-MS/MS system consisting of an Easy-nLC 1200 ultra-high-pressure liquid chromatography system and an Orbitrap Fusion Lumos mass spectrometer (Thermo Fisher Scientific). […]

Turning to `CC(=O)OC[C@H]1OC(OC(C)=O)[C@H](NC(=O)CN=[N+]=[N-])[C@@H](OC(C)=O)[C@H]1OC(C)=O` (some centres unmarked) [Ac4GalNAz, N-azidoacetylgalactosamine-tetraacylated], in the data set with healthy rat lungs, the “Lung compliance during EVLP” value is given as “no significant differences”. Also, the “Pulmonary vascular resistance during EVLP” value in the data set on healthy rat lungs was “no significant differences”. Further, the “Azide labeling of lung tissue (azide→biotin fluorescence)” value is “robust and specific azide labeling” with rat lungs; “also was observed” in the data set with human lungs. Besides, in the data set on post-EVLP lungs, the “Effect on overall lung proteome (Input samples, Pearson correlation, hierarchical clustering)” value is on record as “did not significantly alter”.
